Tested on: sulfur-oxidizing microbes
Experiment: Water toxicity detection with sulfur particles: electrical conductivity difference between inflow and outflow water, continuous reaction container
Assay type: cell-based, Thiobacillus
Details: 30 ppm test substance in the sample; EBCT 17 minute; 30° C.; ratio 0~1, about 1 = no toxicity, about 0 = high toxicity; 0.3 corresponds to issuing alarm
Experimental: When the microbes attached around the sulfur particles are grown in the reaction container 130 of which conditions such as temperature is constant, the sulfur is oxidized at a constant speed. The following formula expresses a reaction of generation of sulfate ions and hydrogen ions in the processes. S+H2O+1.5O2−>SO4^2−+2H^+ΔG°′=−587.1 kJ/reaction
Referring to the above formula, the sulfur particles react with the microbes, the inflow water, and the oxygen in the reaction container 130 to generate a predetermined amount of sulfate ions. In case of non-toxic outflow water, the amount of sulfate ions thereof is increased by a predetermined amount in comparison with the inflow water. Since a degree of alkali in a river water is generally low, pH of the outflow water is decreased in comparison with the inflow water.
However, in case of the inflow water containing toxic substances, a degree of activation of the microbes attached around the sulfur particles is lowered, so that the sulfur particles can not be oxidized. […]
The reaction container is filled with a 30 mL of sulfur particles. […] While an empty bed contact time (EBCT) of the inflow water is changed among 7.1, 8.3, 10.0, 12.5, and 16.7 minutes, the pH and electrical conductivity of the inflow water and the outflow water are measured. The EBCT is calculated by dividing a volume (30 mL) of the sulfur particles with a flow rate. […]

## hexavalent chrome
  ECDifference ratio: 0.3
